# In patent US20080004313A1, “Preparation of crystalline polymorphs of rimonabant hydrochloride” (priority 2006, published 2008):
# Experiment: Stability study of bulk material (stability-indicating HPLC, storage under controlled temperature and humidity)
# Assay type: physicochemical
# Procedure: The stability of crystalline polymorphic forms or solvates of rimonabant hydrochloride of the present invention may be determined using conventional quantitative analytical methods. For example the stability of crystalline polymorph forms or solvates of rimonabant hydrochloride may be determined by using accelerated stability conditions, wherein the test compounds are stored under controlled conditions of temperature and humidity over known periods of time, e.g., 40° C./75% relative humidity. Quantitative analysis of the test compounds by high performance liquid chromatography method or by X-ray powder diffraction pattern, DSC, IR or TGA, against appropriate reference standards before, during and after the storage period allows the stability of the test compound to be determined.
# The stability of polymorph forms or solvate forms (Form A, B, C, D and E) of crystalline rimonabant hydrochloride bulk material and tablets was assessed by storing samples for up to 6 or 12 weeks at 25° C./60% RH or 40° C./75% RH. Changes were monitored using a stability-indicating HPLC method. Results were calculated by normalized peak area (npa). Degradants were identified by comparison of their relative retention times against impurity standards.
smiles,measurement,setting,value
"Cc1c(C(=O)NN2CCCCC2)nn(-c2ccc(Cl)cc2Cl)c1-c1ccc(Cl)cc1.Cl [Form D, N-piperidino-5-(4-chlorophenyl)-1-(2,4-dichlorophenyl)-4-methyl-3-pyrazolecarboxamide hydrochloride]",stability (time),"bulk material, elevated temperatures and humidity",3 months
same,physical and chemical stability,solid state,physically and chemically stable
